The values below come from patent US7566724B2, “Glycine derivative and use thereof” (Toray Industries, Inc., priority 2004, dated 2009).

Data set [1] can be described thus: Pharmacokinetic Evaluation in Rats. The class given is in vivo. Conditions: rat, male SD rats, administered orally or intravenously, plasma up to 8 hours, LC/MS/MS; for bioavailability: oral, read-out: BA(%) (bioavailability); for clearance: read-out: CLtot (total clearance) (converted). The protocol:
Each compound was dissolved at a concentration of 0.5 mg/ml in PBS or in PBS containing 10% PEG. The compound was administered orally or intravenously to male SD rats (7 to 9 weeks old). Blood was collected from the tail vein at time points up to 8 hours after the administration, and blood plasma was collected by centrifugation from each obtained blood. The blood plasma was pretreated by using the solid-phase extraction method, and the concentration of the compound was analyzed with LC/MS/MS (ESI negative mode).
As the Comparative Compound, 2-[4-((3,5-dichlorobenzensulfonylamino)methyl)benzoylamino]-5-(4-(methyl-pyrimidin-2-ylamino)phenyl)pento-4-ene acid (XXI) described in WO 99/26923 was used.
[“BA” in Table 17 means bioavailability, and “CLtot” means total clearance.]

The subject of data set [2] is DSS-induced colitis. As to the kind of experiment: Dextran Sulfate Sodium (DSS)-induced Colitis Model of Mice (1). The class given is in vivo, Female BALB/c mice. The note with it: 3 w/v % DSS for 8 days, scored at day 8. The protocol: Female BALB/c mice (Charles River, Japan) of 7 to 9 weeks old were allowed to freely drink 3 w/v % dextran sulfate sodium (DSS) for 8 days to induce colitis. The non-induced (background) group was allowed to freely drink sterilized distilled water. The compound described in Example 28 was orally administered to the mice at a dose of 5 mg/kg, and the compounds described in Example 4, Example 22 and Example 78 were orally administered to the mice at a dose of 15 mg/kg every day. At day 8 from the beginning of the drinking, stool consistency was scored (0: normal stool, 2: loose stool, 4: diarrhea) by using the method described by Murthy et al (see, for example, Dig Dis Sci., 38, 1722 (1993)).

A further data set relates to Jurkat cells. Kind of data set: Measurement of Inhibitory Effect on Leukocyte Functions (adhesion of Jurkat cells to ligand-expressing cells or ligand-immobilized plate). The class given is cell-based. Conditions: Homo sapiens, 0.5 h; fluorescently labelled Jurkat cells, ligand-expressing cells or ligand-immobilized plate, 37° C. 30 minutes; read-out: IC50 (adhesion of Jurkat cells). On the procedure:
Jurkat cells which are a cell line originated from human acute T cell lymphoma were allowed to react with BCECF-AM at 37° C. for 20 minutes to fluorescently label the cells. The fluorescently labelled Jurkat cells were allowed to react with ligand-expressing cells or with a ligand-immobilized plate at 37° C. for 30 minutes. After removing non-adherent cells by washing, 1% NP40 was added to lyse the adherent cells, and fluorescence intensity was measured with Cytoflow 2300 (Millipore). From the obtained fluorescence intensity, the number of adherent cells was calculated. Each test compound was reacted with the Jurkat cells before the beginning of the adhesion reaction. In Table 18, the IC50 of each compound is shown.

Data set [3] concerns leukotriene B4 production by neutrophils. Kind of data set: Measurement of Inhibitory Effect on Inflammatory Mediator Production by Leukocytes (ionomycin-induced leukotriene B4 in neutrophils). The class given is cell-based. Conditions: 0.5 h, human neutrophil suspension, 37° C. 30 minutes, EIA. On the procedure: A mixture of human peripheral blood and physiological saline containing 3% dextran was left to stand for 30 minutes and then the upper layer was recovered. The upper layer was overlaid on Histopaque 1077 (SIGMA), and the resultant was centrifuged at 1400 rpm for 30 minutes. The supernatant was removed by aspiration and a buffer was added to the precipitate to prepare a neutrophil suspension (4×10^5 cells/mL). To the neutrophil suspension, ionomycin was added and the mixture was incubated at 37° C. for 30 minutes, followed by quantification of leukotriene B4 by EIA (Amersham, Biotrak EIA system). Each test compound was added to the neutrophil suspension before adding ionomycin. In Table 19, the IC50 of each compound is shown.

In data set [4] the test system is DSS-induced colitis. Kind of data set: Dextran Sulfate Sodium (DSS)-induced Colitis Model of mice (2). The class given is in vivo, Female BALB/c mice. The note with it: orally 5 mg/kg every day from Day 27 to Day 31; DSS 5 to 7 days then water 5 days, repeated 3 times. On the procedure:
Female BALB/c mice (Charles River, Japan) of 7 to 9 weeks old were allowed to freely drink 3 w/v % dextran sulfate sodium (DSS) for 5 to 7 days, and then to freely drink sterilized distilled water for 5 days. The procedure was repeated 3 times to induce colitis. The non-induced (background) group was allowed to freely drink sterilized distilled water. The compounds described in Examples 81 and 84 were orally administered to the mice at a dose of 5 mg/kg, respectively, every day from Day 27 to Day 31 after from the beginning of the drinking, and stool consistency was scored (0: normal stool, 2: loose stool, 4: diarrhea) by using the method described by Murthy et al (see, for example, Dig Dis Sci., 38, 1722 (1993).

Take `CC(C)N(c1ccc(/C=C/CC(NC(=O)c2c(Cl)cccc2Cl)C(=O)O)cc1)c1ncccn1` (centres unmarked) [Example 28, (E)-2-(2,6-Dichlorobenzamido)-5-[4-(isopropyl-pyrimidin-2-ylamino)phenyl]pent-4-enoic acid]: in data set [1], the bioavailability (commonly dose-corrected exposure relative to a reference, in per cent) came to 80.6% and the clearance is 14.9 mL/min/kg. In the data set with DSS-induced colitis [2] (orally 5 mg/kg every day), the “rate of amelioration (stool consistency score)” value (“rate of amelioration” below) is 71%. In addition, the IC50 (usually the point on the concentration scale where inhibition reaches its midpoint) with Jurkat cells came out at 0.056 µM. For the same compound, in data set [3], the IC50 was 7.4 µM.
Regarding `CC(C)N(c1ccc(/C=C/C[C@H](NC(=O)c2c(Cl)cccc2Cl)C(=O)[O-])cc1)c1ncccn1.[Na+]` [Example 84, (S,E)-2-(2,6-Dichlorobenzamido)-5-[4-(isopropyl-pyrimidin-2-ylamino)phenyl]pent-4-enoic acid sodium salt], the 50% inhibitory concentration (IC50) with Jurkat cells turned out to be 0.03 µM. Besides, the “rate of amelioration” value in the data set on DSS-induced colitis [4] came to 82.4%.
For `COC1(c2ccc(/C=C/CC(NC(=O)c3c(Cl)cccc3Cl)C(=O)O)cc2)CCOCC1` (centres unmarked) [Example 4, (E)-2-(2,6-Dichlorobenzamido)-5-[4-(4-methoxytetrahydropyran-4-yl)-phenyl]pent-4-enoic acid], in data set [1], the bioavailability was 55% and the clearance is 10.1 mL/min/kg. For the same compound, in the data set with DSS-induced colitis [2] (orally 15 mg/kg every day), the “rate of amelioration” value was 44%. The half-inhibitory concentration (IC50) with Jurkat cells turned out to be 0.247 µM. In data set [3], this compound yielded an IC50 of 52.3 µM.
The like results for `CN(c1ccc(/C=C/CC(NC(=O)c2c(Cl)cccc2Cl)C(=O)O)cc1)c1ncccn1` (centres unmarked) [Example 22, (E)-2-(2,6-Dichlorobenzamido)-5-[4-(methyl-pyrimidin-2-ylamino)phenyl]pent-4-enoic acid] were, in that order, 61.7%, 5.1 mL/min/kg, 67%, 0.16 µM and 176 µM.
Turning to `CN(c1ccc(/C=C/C[C@H](NC(=O)c2c(Cl)cccc2Cl)C(=O)[O-])cc1)c1ncccn1.[Na+]` [Example 81, (S,E)-2-(2,6-Dichlorobenzamido)-5-[4-(methyl-pyrimidin-2-ylamino)phenyl]pent-4-enoic acid sodium salt], in data set [1], the bioavailability stood at 52.1% and the clearance was 17 mL/min/kg. Further, the IC50 in the data set with Jurkat cells turned out to be 0.082 µM. The “rate of amelioration” value in the data set with DSS-induced colitis [4] worked out at 68.8%.
Consider `COC1(c2ccc(/C=C/C[C@H](NC(=O)c3c(Cl)cccc3Cl)C(=O)[O-])cc2)CCOCC1.[Na+]` [Example 78, (S,E)-2-(2,6-Dichlorobenzamido)-5-[4-(4-methoxytetrahydropyran-4-yl)-phenyl]pent-4-enoic acid sodium salt], for which the “rate of amelioration” value in the data set with DSS-induced colitis [2] (orally 15 mg/kg every day) amounted to 40%. Further, the IC50 with Jurkat cells turned out to be 0.054 µM.
